PubChem BioAssay (NCI)
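Assay format: 96-well plates, 48-hour exposure. TGI denotes the concentration required for complete inhibition of growth.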

What was measured:
Test in all cases: NCI-60 cell line screen, 48 h
[1] = tested on: OVCAR-4 ovarian
[2] = tested on: SK-MEL-28 melanoma
[3] = tested on: HCT-116 colon
[4] = tested on: T-47D breast
[5] = tested on: SK-OV-3 ovarian
[6] = tested on: HS 578T breast
[7] = tested on: IGROV1 ovarian
[8] = tested on: SW-620 colon
[9] = tested on: HT29 colon
[10] = tested on: SK-MEL-2 melanoma
[11] = tested on: SF-295 CNS
[12] = tested on: NCI-H23 lung
[13] = tested on: NCI/ADR-RES ovarian
[14] = tested on: KM12 colon
[15] = tested on: COLO 205 colon
[16] = tested on: SNB-19 CNS
[17] = tested on: A549 NSCLC
[18] = tested on: EKVX NSCLC
[19] = tested on: MCF7 breast
[20] = tested on: MOLT-4 leukemia
[21] = tested on: CCRF-CEM leukemia
[22] = tested on: TK-10 renal
[23] = tested on: M14 melanoma
[24] = tested on: SK-MEL-5 melanoma
[25] = tested on: UACC-257 melanoma
[26] = tested on: RXF 393 renal
[27] = tested on: OVCAR-8 ovarian
[28] = tested on: OVCAR-3 ovarian
[29] = tested on: SF-268 CNS
[30] = tested on: ACHN renal
[31] = tested on: SR leukemia
[32] = tested on: MALME-3M melanoma
[33] = tested on: U251 CNS
[34] = tested on: SN12C renal
[35] = tested on: K-562 leukemia
[36] = tested on: HCT-15 colon
[37] = tested on: BT-549 breast
[38] = tested on: MDA-MB-435
[39] = tested on: NCI-H226 lung
[40] = tested on: MDA-N
[41] = tested on: SNB-75 CNS
[42] = tested on: 786-0 renal
[43] = tested on: LOX IMVI melanoma
[44] = tested on: OVCAR-5 ovarian
[45] = tested on: NCI-H460 lung
[46] = tested on: CAKI-1 renal
[47] = tested on: UACC-62 melanoma
[48] = tested on: UO-31 renal
[49] = tested on: SF-539 CNS
[50] = tested on: HL-60(TB) leukemia
[51] = tested on: DU-145 prostate
[52] = tested on: PC-3 prostate
[53] = tested on: A498 renal
[54] = tested on: NCI-H522 lung
[55] = tested on: HOP-92 NSCLC
[56] = tested on: MDA-MB-231 breast
[57] = tested on: HOP-62 NSCLC
[58] = tested on: RPMI-8226 leukemia

## COP(=O)(OC)[C@@](O)(c1ccccc1)[C@@H](O)[C@H](O)c1ccccc1
[1]
  TGI: > 100 µM
[2]
  TGI: > 100 µM
[3]
  TGI: > 100 µM
[4]
  TGI: > 100 µM
[5]
  TGI: > 100 µM
[6]
  TGI: > 100 µM
[7]
  TGI: > 100 µM
[8]
  TGI: > 100 µM
[9]
  TGI: > 100 µM
[10]
  TGI: > 100 µM
[11]
  TGI: > 100 µM
[12]
  TGI: > 100 µM
[13]
  TGI: > 100 µM
[14]
  TGI: > 100 µM
[15]
  TGI: > 100 µM
[16]
  TGI: > 100 µM
[17]
  TGI: > 100 µM
[18]
  TGI: > 100 µM
[19]
  TGI: 63.3 µM
[20]
  TGI: > 100 µM
[21]
  TGI: 41.6 µM
[22]
  TGI: > 100 µM
[23]
  TGI: > 100 µM
[24]
  TGI: > 100 µM
[25]
  TGI: > 100 µM
[26]
  TGI: > 100 µM
[27]
  TGI: > 100 µM
[28]
  TGI: > 100 µM
[29]
  TGI: > 100 µM
[30]
  TGI: > 100 µM
[31]
  TGI: > 100 µM
[32]
  TGI: > 100 µM
[33]
  TGI: > 100 µM
[34]
  TGI: > 100 µM
[35]
  TGI: > 100 µM
[36]
  TGI: > 100 µM
[37]
  TGI: > 100 µM
[38]
  TGI: > 100 µM
[39]
  TGI: > 100 µM
[40]
  TGI: > 100 µM
[41]
  TGI: > 100 µM
[42]
  TGI: > 100 µM
[43]
  TGI: 56.4 µM
[44]
  TGI: > 100 µM
[45]
  TGI: > 100 µM
[46]
  TGI: > 100 µM
[47]
  TGI: > 100 µM
[48]
  TGI: > 100 µM
[49]
  TGI: > 100 µM
[50]
  TGI: > 100 µM
[51]
  TGI: > 100 µM
[52]
  TGI: > 100 µM
[53]
  TGI: > 100 µM
[54]
  TGI: > 100 µM
[55]
  TGI: > 100 µM
[56]
  TGI: > 100 µM

## Nc1nc(N)c2cc(-c3cc4ccccc4[nH]3)ccc2n1
[1]
  TGI: 63.5 µM
[2]
  TGI: 48.7 µM
[3]
  TGI: > 100 µM
[4]
  TGI: 21.7 µM
[5]
  TGI: > 100 µM
[6]
  TGI: > 100 µM
[7]
  TGI: 33.4 µM
[57]
  TGI: > 100 µM
[8]
  TGI: 90.3 µM
[9]
  TGI: 38.9 µM
[10]
  TGI: 36.4 µM
[11]
  TGI: 90.2 µM
[12]
  TGI: > 100 µM
[13]
  TGI: > 100 µM
[14]
  TGI: 43.5 µM
[15]
  TGI: 24 µM
[16]
  TGI: > 100 µM
[17]
  TGI: > 100 µM
[18]
  TGI: 95 µM
[19]
  TGI: 33.6 µM
[20]
  TGI: 53.1 µM
[21]
  TGI: > 100 µM
[22]
  TGI: 37.2 µM
[23]
  TGI: 34.4 µM
[24]
  TGI: 30.2 µM
[25]
  TGI: 35.1 µM
[26]
  TGI: 48.4 µM
[27]
  TGI: > 100 µM
[28]
  TGI: > 100 µM
[29]
  TGI: 95.5 µM
[30]
  TGI: 33.3 µM
[31]
  TGI: 60.5 µM
[32]
  TGI: 30.4 µM
[33]
  TGI: > 100 µM
[34]
  TGI: > 100 µM
[36]
  TGI: 55 µM
[37]
  TGI: 80.3 µM
[38]
  TGI: 38.6 µM
[39]
  TGI: 93.7 µM
[40]
  TGI: 40.7 µM
[41]
  TGI: > 100 µM
[58]
  TGI: 32.4 µM
[42]
  TGI: 49.6 µM
[43]
  TGI: 36.3 µM
[44]
  TGI: 65 µM
[45]
  TGI: 45.8 µM
[46]
  TGI: 94.9 µM
[47]
  TGI: 33.9 µM
[48]
  TGI: 32.9 µM
[49]
  TGI: 51.7 µM
[50]
  TGI: 47.7 µM
[51]
  TGI: 58.8 µM
[52]
  TGI: > 100 µM
[53]
  TGI: 32.7 µM
[54]
  TGI: 42.4 µM
[55]
  TGI: 35.2 µM
[56]
  TGI: 39.3 µM
